Legend:
[1] = Anti-inflammatory activity: oedema provoked by carragenin in the rat; type: in vivo; conditions: po, read-out: percentage inhibition of oedema
Description: The method used was as follows.
The anti-inflammatory activity was measured on oedema provoked by carragenin in the rat. Groups of six male rats each weighing 120 to 130 g received the compound under test orally in suspension in "tween 80", half the dose being given 2 hours before and the other half 1/2 hour before the subcutaneous plantar injection of 0.05 ml of a 1 % carragenin solution. The volume of the injected paw was measured by plethysmography at regular intervals. Table 1 below gives the percentage inhibition of the oedema with reference to untreated controls.

[2] = Analgesic activity: Siegmund's test (phenylbenzoquinone painful reactions); type: in vivo; conditions: Mus musculus, po, read-out: percentage inhibition of reactions
Description: This activity was measured by Siegmund's test in mice and Randall and Selitto's test in the rat.
Groups of six mice received the compound under test orally 1 hour before intraperitoneal injection of 0.2 ml of an 0.02% of solution of phenylbenzoquinone. The number of painful reactiors from the fifth to the tenth minute after the injection of phenylbenzoquinone was counted.

[3] = Analgesic activity: Randall and Selitto's test (beer yeast paw, pain threshold); type: in vivo, rat
Description: This activity was measured by Siegmund's test in mice and Randall and Selitto's test in the rat. Groups of ten male rats each weight 120 to 140 g received by subcutaneous plantar injection 0.05 ml of a 5% aqueous suspension of beer yeast. 2 Hours after this treatment they received the compound under test orally and 1 hour after administration of this compound the paw which had been injected and the contralateral paw were subjected to increasing pressure. The appearance of the pain threshold was noted.

Escape test = type: in vivo; conditions: Mus musculus, ip, 0.5 h, read-out: Percentage inhibition (number of attempts to escape)
Description: Groups of 8 mice were placed in sub groups of 4 in an enclosure from which they could escape by an inclined plane. The number of attempts to escape during 5 minutes were counted half an hour after intraperitoneal administration of the compound under test.

[4] = Antagonism of convulsions produced by cardiazole; type: in vivo; conditions: Mus musculus, ip, read-out: Percentage inhibition of tonic convulsions
Description: Groups of 6 mice received the compound under test 30 minutes before introperitoneal injection of 160 mg/kg of cardiazole. The action of the compound under test on the tonic convulsion phase was observed.

Solubility in water = type: physicochemical; conditions: monohydrochloride

Question: For Cc1cccc(Nc2ncccc2C(=O)OCC(C)(C)N(C)C)c1C [Example 3, 2-Dimethylamino-2-methylpropyl nixylate], which inhibition in vivo at 128 mg/kg ([1]; 128 mg/kg orally) is on record?
Answer: 0%

Question: And the inhibition in vivo at 256 mg/kg ([1]; 256 mg/kg orally)?
Answer: 72%

Question: What about the inhibition in vivo at 512 mg/kg ([1]; 512 mg/kg orally) of the same compound?
Answer: 67%

Question: And the inhibition in vivo at 64 mg/kg ([2]; 64 mg/kg orally)?
Answer: 31%

Question: What about the inhibition in vivo at 128 mg/kg ([2]; 128 mg/kg orally) of the same compound?
Answer: 49%

Question: And the inhibition in vivo at 256 mg/kg ([2]; 256 mg/kg orally)?
Answer: 75%

Question: And the “percentage increase of pain threshold” value ([3]; with yeast, 16 mg/kg orally)?
Answer: 33%

Question: And the “percentage increase of pain threshold” value ([3]; with yeast, 32 mg/kg orally)?
Answer: 42%

Question: What about the “percentage increase of pain threshold” value ([3]; with yeast, 64 mg/kg orally) of the same compound?
Answer: 66%

Question: And the “percentage increase of pain threshold” value ([3]; with yeast, 128 mg/kg orally)?
Answer: 41%

Question: And the “percentage increase of pain threshold” value ([3]; without yeast, 32 mg/kg orally)?
Answer: 0%

Question: What about the “percentage increase of pain threshold” value ([3]; without yeast, 64 mg/kg orally) of the same compound?
Answer: 2%

Question: What about the “percentage increase of pain threshold” value ([3]; without yeast, 128 mg/kg orally) of the same compound?
Answer: 11%

Question: And the “percentage increase of pain threshold” value ([3]; without yeast, 256 mg/kg orally)?
Answer: 0%

Question: And the change in vivo at 8 mg/kg (Escape test; 8 mg/kg intraperitoneally)?
Answer: -16%

Question: What about the change in vivo at 16 mg/kg (Escape test; 16 mg/kg intraperitoneally) of the same compound?
Answer: -15%

Question: And the change in vivo at 32 mg/kg (Escape test; 32 mg/kg intraperitoneally)?
Answer: -30%

Question: And the change in vivo at 64 mg/kg (Escape test; 64 mg/kg intraperitoneally)?
Answer: -67%

Question: And the change in vivo at 128 mg/kg (Escape test; 128 mg/kg intraperitoneally)?
Answer: -95%

Question: What about the inhibition in vivo at 8 mg/kg ([4]; 8 mg/kg intraperitoneally) of the same compound?
Answer: 0%

Question: What about the inhibition in vivo at 16 mg/kg ([4]; 16 mg/kg intraperitoneally) of the same compound?
Answer: 5%

Question: What about the inhibition in vivo at 32 mg/kg ([4]; 32 mg/kg intraperitoneally) of the same compound?
Answer: 16%

Question: And the inhibition in vivo at 64 mg/kg ([4]; 64 mg/kg intraperitoneally)?
Answer: 83%

Question: And the inhibition in vivo at 128 mg/kg ([4]; 128 mg/kg intraperitoneally)?
Answer: 100%

Question: And the solubility in water (Solubility in water)?
Answer: soluble in water

Reference: patent US3959272A, “Aminoalkyl esters of 2-anilino-nicotinic acids” (Societe Anonyme dite: Hexachime, priority 1972, dated 1976)
